From patent US6372737B1 (priority 1996, dated 2002)

Legend:
Type in all cases: in vivo
Sphaerotheca fuliginea = assay: Sphaerotheca test (cucumber)/protective; settings: protective, 10 days after inoculation; for Emax at 12.5 g/ha / Emax at 2.5 g/ha: Podosphaera fuliginea, 240 h, read-out: % efficacy; for Emax at 12.5 g/ha: application rate 12.5 g/ha
Procedure: To test for protective activity, young plants are sprayed with the commercial active compound preparation at the stated application rate. After the spray coating has dried on, the plants are inoculated with an aqueous spore suspension of Sphaerotheca fuliginea. The plants then remain in a greenhouse at about 23° C. and about 70% relative atmospheric humidity.
Evaluation is carried out 10 days after the inoculation. 0% means an efficacy corresponding to that of the control, and an efficacy of 100% means that no infection is observed.

[1] = tested on: Erysiphe graminis f.sp. hordei; assay: Erysiphe test (barley)/curative; settings: curative, 7 days after inoculation
Procedure: (§1) Solvent: 25 parts by weight of N,N-dimethylacetamide
(§2) Emulsifier: 0.6 part by weight of alkylaryl polyglycol ether
(§3) To produce a suitable preparation of active compound, 1 part by weight of active compound or active compound combination is mixed with the stated amounts of solvent and emulsifier, and the concentrate is diluted with water to the desired concentration.
To test for curative activity, young plants are dusted with spores of Erysiphe graminis f.sp. hordei. 48 hours after the inoculation, the plants are sprayed with the preparation of active compound at the stated application rate.
(§4) The plants are placed in a greenhouse at a temperature of about 20° C. and a relative atmospheric humidity of about 80%, in order to promote the development of mildew pustules.
(§5) Evaluation is carried out 7 days after the inoculation. 0% means an efficacy which corresponds to that of the control, whereas an efficacy of 100% means that no infection is observed.

Leptosphaeria nodorum [2] = assay: Leptosphaeria nodorum test (wheat)/curative; settings: curative, 10 days after inoculation
Procedure: as §1, §2, §3
(§6) To test for curative activity, young plants are sprayed with a conidia suspension of Leptosphaeria nodorum. The plants remain in an incubation cabin at 20° C. and 100% relative atmospheric humidity for 48 hours and are then sprayed with the preparation of active compound at the stated application rate.
The plants are placed in a greenhouse at a temperature of about 15° C. and a relative atmospheric humidity of about 80%.
(§7) Evaluation is carried out 10 days after the inoculation. 0% means an efficacy which corresponds to that of the control, whereas an efficacy of 100% means that no infection is observed.

[3] = tested on: Erysiphe graminis fsp. tritici; assay: Erysiphe test (wheat)/protective; settings: protective, 7 days after inoculation
Procedure: as §1, §2, §3
To test for protective activity, young plants are sprayed with the preparation of active compound at the stated application rate.
After the spray coating has dried on, the plants are dusted with spores of Erysiphe graminis fsp. tritici.
as §4, §5

Leptosphaeria nodorum [4] = assay: Leptosphaeria nodorum test (wheat)/protective; settings: application rate 6.25 g/ha, protective, 10 days after inoculation; for pest or weed control at 6.25 g/ha: Parastagonospora nodorum, 240 h, read-out: Efficacy in %
Procedure: as §1, §2, §3
(§8) To test for protective activity, young plants are sprayed with the preparation of active compound at the stated application rate. After the spray coating has dried on, the plants are sprayed with a spore suspension of Leptosphaeria nodorum. The plants remain in an incubation cabin at 20EC and 100% relative atmospheric humidity for 48 hours.
The plants are placed in a greenhouse at a temperature of about 15° C. and a relative atmospheric humidity of 80%.
as §7

Puccinia recondita [5] = assay: Puccinia test (wheat)/protective; settings: application rate 6.25 g/ha, protective, 10 days after inoculation; for pest or weed control at 6.25 g/ha: Puccinia recondita, 240 h, read-out: Efficacy in %
Procedure: as §1, §2, §3
as §8, with “conidia” for “spore”, “Puccinia recondita.” for “Leptosphaeria nodorum.”, “20° C.” for “20EC”
The plants are then placed in a greenhouse at a temperature of about 20° C. and a relative atmospheric humidity of 80%, in order to promote the development of rust pustules.
as §7

Phytophthora infestans = assay: whole plant or invertebrate
Fusarium nivale = Fusarium nivale test (triticale)/seed treatment; settings: dry seed dressing, about 3 weeks after sowing
Procedure: About 3 weeks after sowing, the plants are evaluated for symptoms of snow mould.

Rhizoctonia solani = Rhizoctonia solani test (cotton)/seed treatment; settings: application rate 75 mg/kg of seed, dry seed dressing, after 8 days
Procedure: The active compounds are applied as dry seed dressing. This is prepared by extending the respective active compound with ground mineral to give a finely pulverulent mixture which ensures uniform distribution on the seed surface.
To dress the seed, the infected seed together with the seed dressing is shaken for 3 minutes in a sealed glass flask.
2×50 corns of seed are sown at a depth of 2 cm into standard soil which is infected with Rhizoctonia solani, and the seeds are cultivated in a greenhouse at a temperature of about 22° C. in seed trays which receive a light regimen of 15 hours per day.
Evaluation is carried out after 8 days. 0% means an efficacy which corresponds to that of the untreated control, while an efficacy of 100% means that no disease is observed.

Pyrenophora teres = Pyrenophora teres test (barley)/curative; settings: application rate 6.25 g/ha, curative, 7 days after inoculation
Procedure: as §1, §2, §3
as §6, with “Pyrenophora teres.” for “Leptosphaeria nodorum.”, “hours. The plants” for “hours and”, “subsequently” for “then”
The plants are placed in a greenhouse at a temperature of about 20° C. and a relative atmospheric humidity of about 80%.
as §5

[6] = tested on: Erysiphe graminis f.sp. tritici; assay: Erysiphe test (wheat)/curative; settings: curative, 7 days after inoculation
Procedure: as §1, §2, §3
To test for curative activity, young plants are dusted with spores of Erysiphe graminis f.sp. tritici. 48 hours after the inoculation, the plants are sprayed with the preparation of active compound at the stated application rate.
as §4, §5

Puccinia recondita [7] = assay: Puccinia test (wheat)/curative; settings: application rate 6.25 g/ha, curative, 10 days after inoculation
Procedure: as §1, §2, §3
as §6, with “Puccinia recondita.” for “Leptosphaeria nodorum.”, “hours. The plants” for “hours and”, “subsequently” for “then”
The plants are placed in a greenhouse at a temperature of about 20° C. and a relative atmospheric humidity of about 80%, in order to promote the development of rust pustules.
as §7

Botrytis cinerea = assay: Botrytis test (beans)/protective; settings: 48 h, application rate 250 g/ha, protective, two days after inoculation, read-out: % efficacy
Procedure: To test for protective activity, young plants are sprayed with the commercial active compound preparation at the stated application rate. After the spray coating has dried on, 2 small pieces of agar covered with Botrytis cinerea are placed on each leaf. The inoculated plants are placed in a darkened chamber at about 20° C. and 100% relative atmospheric humidity.
Two days after the inoculation, the size of the infected spots on the leaves is evaluated. 0% means an efficacy corresponding to that of the control, and an efficacy of 100% means that no infection is observed.

[8] = application rate 5 g/ha, tomato, protective, 3 days after inoculation
[9] = Phytophthora infestans, in Solanum lycopersicum, 72 h, read-out: % efficacy
[10] = application rate 25 mg/kg of seed
[11] = application rate 75 mg/kg of seed

CCCN(CC)CC1COC2(CCC(C(C)(C)C)CC2)O1 (centres unmarked) [(δ), 8-t-butyl-2-(N-ethyl-N-n-propyl-amino)-methyl-1,4-dioxaspiro[5.4]-decane]
% efficacy (Sphaerotheca fuliginea; application rate 2.5 g/ha): 10% | Efficacy in % ([1]; application rate 6.25 g/ha): 0% | Efficacy in % (Leptosphaeria nodorum [2]; application rate 12.5 g/ha): 25% | Efficacy in % ([3]; application rate 6.25 g/ha): 14% | Efficacy in % (Leptosphaeria nodorum [4]): 25% | Efficacy in % (Puccinia recondita [5]): 13%

mancozeb [(II)]
% efficacy (Phytophthora infestans; application rate 50 g/ha, tomato, protective, 3 days after inoculation): 54%

CSC(=O)c1cccc2nnsc12 [(β)]
% efficacy (Phytophthora infestans; [8]): 0%

O=C1C2CC=CCC2C(=O)N1SC(Cl)(Cl)Cl (centres unmarked) [(θ), captan]
Emax at 12.5 g/ha (Sphaerotheca fuliginea): 0%

propineb [(A)]
% efficacy (Sphaerotheca fuliginea; application rate 25 g/ha): 45%

COc1ccc(/C(=C/C(=O)N2CCOCC2)c2ccc(Cl)cc2)cc1OC [(L), dimetomorph]
Emax at 1 g/ha (Phytophthora infestans; [9]): 0%

CC(C)(C)C(O)C(Oc1ccc(Cl)cc1)n1cncn1 (centres unmarked) [(F), triadimenol]
Emax at 5 g/ha (Phytophthora infestans; [9]): 0% | Efficacy in % (Fusarium nivale; [10]): 52% | Efficacy in % (Rhizoctonia solani): 48% | Efficacy in % ([1]; application rate 6.25 g/ha): 67% | Efficacy in % (Leptosphaeria nodorum [2]; application rate 6.25 g/ha): 25% | Efficacy in % (Pyrenophora teres): 0% | pest or weed control at 6.25 g/ha (Leptosphaeria nodorum [4]): 0% | pest or weed control at 6.25 g/ha (Puccinia recondita [5]): 13%

Fc1ccc([C@]2(Cn3cncn3)O[C@H]2c2ccccc2Cl)cc1 (racemic) [(V), epoxiconazole]
Efficacy in % ([1]; application rate 12.5 g/ha): 92% | pest or weed control at 6.25 g/ha (Leptosphaeria nodorum [4]): 50% | pest or weed control at 6.25 g/ha (Puccinia recondita [5]): 81%

O=[N+]([O-])c1cc(C(F)(F)F)c(Cl)c([N+](=O)[O-])c1Nc1ncc(C(F)(F)F)cc1Cl [(π), fluazinam]
Emax at 5 g/ha (Phytophthora infestans; [9]): 11%

CCC1(C(=O)N[C@H](C)c2ccc(Cl)cc2)C(C)C1(Cl)Cl (stereo partly drawn) [(ω), N-(R)-[1-(4-chloro-phenyl)-ethyl]-2,2-dichloro-1-ethyl-3t-methyl-1r-cyclopropane-carboxarnide]
% efficacy (Phytophthora infestans; [8]): 5%

Cc1cc(C2CC2)nc(Nc2ccccc2)n1 [(R), cyprodinyl]
Emax at 5 g/ha (Phytophthora infestans; [9]): 0% | Efficacy in % ([6]; application rate 25 g/ha): 17% | Efficacy in % (Leptosphaeria nodorum [2]; application rate 6.25 g/ha): 50% | Efficacy in % (Puccinia recondita [7]): 33% | Efficacy in % ([3]; application rate 12.5 g/ha): 0% | pest or weed control at 6.25 g/ha (Leptosphaeria nodorum [4]): 25% | pest or weed control at 6.25 g/ha (Puccinia recondita [5]): 13%

Cc1cc(C)nc(Nc2ccccc2)n1 [(Q), pyrimethanil]
Emax at 12.5 g/ha (Sphaerotheca fuliginea): 10%

CN(C)S(=O)(=O)N(SC(F)(Cl)Cl)c1ccccc1 [(B1), dichlorofluanide]
% efficacy (Sphaerotheca fuliginea; application rate 25 g/ha): 20%

N#Cc1c[nH]cc1-c1cccc2c1OC(F)(F)O2 [(Y), fludioxonil]
Efficacy in % (Fusarium nivale; [11]): 92% | Efficacy in % ([6]; application rate 25 g/ha): 0% | pest or weed control at 6.25 g/ha (Leptosphaeria nodorum [4]): 25% | pest or weed control at 6.25 g/ha (Puccinia recondita [5]): 13%

CO/N=C(\C(=O)OC)c1ccccc1COc1ccccc1C [(T), kresoxim-methyl]
Emax at 1 g/ha (Phytophthora infestans; [9]): 14% | Efficacy in % ([1]; application rate 12.5 g/ha): 67% | Efficacy in % ([6]; application rate 6.25 g/ha): 0% | Efficacy in % (Leptosphaeria nodorum [2]; application rate 12.5 g/ha): 50% | Efficacy in % ([3]; application rate 25 g/ha): 86% | pest or weed control at 6.25 g/ha (Leptosphaeria nodorum [4]): 0% | pest or weed control at 6.25 g/ha (Puccinia recondita [5]): 25%

CCO[PH](=O)O [(O), fosetyl-Al]
Emax at 250 g/ha (Botrytis cinerea): 4%

COCC(=O)N(c1c(C)cccc1C)C(C)C(=O)OC (centres unmarked) [(N), metalaxyl]
Emax at 5 g/ha (Phytophthora infestans; [9]): 1%

O=C(Nc1ccccc1)N(Cc1ccc(Cl)cc1)C1CCCC1 [(ρ), pencycuron]
Efficacy in % (Fusarium nivale; [10]): 29%

CC(C)(C)C(O)(CCc1ccc(Cl)cc1)Cn1cncn1 (centres unmarked) [(D), tebuconazole]
Emax at 5 g/ha (Phytophthora infestans; [9]): 26% | Efficacy in % (Fusarium nivale; [10]): 20% | Efficacy in % ([1]; application rate 6.25 g/ha): 33% | Efficacy in % ([1]; application rate 25 g/ha): 83% | Efficacy in % ([3]; application rate 6.25 g/ha): 0% | pest or weed control at 6.25 g/ha (Leptosphaeria nodorum [4]): 25% | pest or weed control at 6.25 g/ha (Puccinia recondita [5]): 38%

Cc1ccc(N(SC(F)(Cl)Cl)S(=O)(=O)N(C)C)cc1 [(B2), tolylfluanide]
% efficacy (Sphaerotheca fuliginea; application rate 25 g/ha): 22%

CC(C)(C)C(O)C(Oc1ccc(-c2ccccc2)cc1)n1cncn1 (centres unmarked) [(C), bitertanol]
Emax at 2.5 g/ha (Sphaerotheca fuliginea; application rate 2.5 g/ha): 20%

O=C1c2ccccc2C(=O)N1SC(Cl)(Cl)Cl [(K), folpet]
Emax at 10 g/ha (Phytophthora infestans; [9]): 27%

CC1(C)CCC(Cc2ccc(Cl)cc2)C1(O)Cn1cncn1 (centres unmarked) [(W), metconazole]
Efficacy in % ([1]; application rate 6.25 g/ha): 33% | Efficacy in % (Leptosphaeria nodorum [2]; application rate 12.5 g/ha): 25% | Efficacy in % (Puccinia recondita [7]): 50% | Efficacy in % ([3]; application rate 6.25 g/ha): 43% | pest or weed control at 6.25 g/ha (Leptosphaeria nodorum [4]): 50% | pest or weed control at 6.25 g/ha (Puccinia recondita [5]): 75%

CO/C=C(/C(=O)OC)c1ccccc1Oc1cc(Oc2ccccc2C#N)ncn1 [(U), azoxystrobin]
Emax at 2.5 g/ha (Sphaerotheca fuliginea; application rate 2.5 g/ha): 57%

CC1(C(=O)Nc2ccc(O)c(Cl)c2Cl)CCCCC1 [(ε), 2,3-dichloro-4-(1-methylcyclohexylcarbonylamino)-phenol]
Emax at 5 g/ha (Phytophthora infestans; [9]): 14%

CC(C)(C)C(=O)C(Oc1ccc(Cl)cc1)n1cncn1 (centres unmarked) [(E), triadimefon]
Emax at 2.5 g/ha (Sphaerotheca fuliginea; application rate 2.5 g/ha): 30%

N#Cc1c[nH]cc1-c1cccc(Cl)c1Cl [(Fenpiclonil) V, fenpiclonil]
Efficacy in % (Fusarium nivale; [11]): 67%

cymoxanil [(M)]
% efficacy (Phytophthora infestans; in vivo): 12%
